Results from patent publication US10703764B2, “Benzopiperazine compositions as BET bromodomain inhibitors” (FORMA Therapeutics, Inc., priority 2013, dated 2020).
pIC50: −log10 of the molar value.

Experiments:
[1] = molecular target: T1, BRD4 BD1 (Homo sapiens, UniProt O60885); test: AlphaScreen binding assay, BRD4 Bromodomain 1
T1 construct: made in house
Procedure, shortened: (§1)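 An AlphaScreen competition format was used with His-BRD4 BD1 or BD2 and biotin-H4 K5/8/12/16-acetyl peptide, each at matched final levels of 50 nM (BD1) or 100 nM (BD2). Incubation in HEPES/NaCl buffer with 0.1% BSA and 0.01% Triton X-100 ran ≥1 h before IC50 determination.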

[2] = molecular target: T2, BRD4 BD2 (Homo sapiens, UniProt O60885); test: AlphaScreen binding assay, BRD4 Bromodomain 2
T2 construct: made in house
Procedure, shortened: as §1

SMILES	pIC50 [1]	pIC50 [2]
CC(=O)N1c2ccc(-c3ccc(S(C)(=O)=O)cc3)cc2N(C(=O)c2ccc(CN(C)C)o2)C[C@@H]1C [Example I-984]	< 5.00	6.30 to 7.30
CC(=O)N1c2ccc(-c3ccc(S(C)(=O)=O)cc3)cc2N(C(=O)c2cccc(N)c2)C[C@@H]1C [Example I-985]	< 5.00	6.30 to 7.30
CC(=O)N1c2ccc(-c3ccc(S(C)(=O)=O)cc3)cc2N(C(=O)c2ccc(N)cc2)C[C@@H]1C [Example I-986]	< 5.00	< 6.30
C[C@H]1CN(C(=O)c2ccco2)c2cc(-c3ccc(S(C)(=O)=O)cc3)ccc2N1C(N)=O [Example I-987]	< 5.00	< 6.30
CC(=O)N1c2ccc(-c3cnn(C4CC4)c3)cc2N(C(=O)Oc2ncccc2C(F)(F)F)C[C@@H]1C [Example I-1188]	< 5.00	< 6.30
COc1ncc(C)cc1OC(=O)N1C[C@H](C)N(C(C)=O)c2ccc(-c3cnn(C4CC4)c3)cc21 [Example I-1210]	5.00 to 6.00	6.30 to 7.30
COC(=O)N1c2ccc(-c3ccc(S(C)(=O)=O)cc3)cc2N(C(=O)Oc2cccnc2)C[C@@H]1C [Example I-1276]	5.00 to 6.00	6.30 to 7.30
CC(=O)N1c2ccc(-c3ccc(NS(C)(=O)=O)cc3)cc2N(C(=O)Oc2cccnc2)C[C@@H]1C [Example I-1277]	5.00 to 6.00	6.30 to 7.30
COC(=O)N1c2ccc(-c3ccc(NS(C)(=O)=O)cc3)cc2N(C(=O)Oc2cccnc2)C[C@@H]1C [Example I-1278]	5.00 to 6.00	< 6.30
COC(=O)N1c2ccc(-c3cnn(CCS(C)(=O)=O)c3)cc2N(C(=O)Oc2cccnc2)C[C@@H]1C [Example I-1280]	5.00 to 6.00	6.30 to 7.30
COC(=O)N1c2ccc(-c3cnn(CCO)c3)cc2N(C(=O)Oc2cccnc2)C[C@@H]1C [Example I-1282]	5.00 to 6.00	< 6.30
COC(=O)N1c2ccc(-c3cnn(C4CC4)c3)cc2N(C(=O)Oc2cccnc2)C[C@@H]1C [Example I-1283]	5.00 to 6.00	6.30 to 7.30
COC(=O)N1c2ccc(-c3cnn(C(C)(C)CO)c3)cc2N(C(=O)Oc2cccnc2)C[C@@H]1C [Example I-1285]	5.00 to 6.00	6.30 to 7.30
COC(=O)N1c2ccc(-c3ccc(N4CCCS4(=O)=O)cc3)cc2N(C(=O)Oc2cccnc2)C[C@@H]1C [Example I-1287]	5.00 to 6.00	< 6.30
CC(=O)N1c2ccc(-c3cnn(CCC#N)c3)cc2N(C(=O)Oc2cccnc2)C[C@@H]1C [Example I-1288]	5.00 to 6.00	6.30 to 7.30
COC(=O)N1c2ccc(-c3cnn(CCC#N)c3)cc2N(C(=O)Oc2cccnc2)C[C@@H]1C [Example I-1289]	5.00 to 6.00	6.30 to 7.30
CC(=O)N1c2ccc(-c3ccc4c(c3)CCN4S(C)(=O)=O)cc2N(C(=O)Oc2cccnc2)C[C@@H]1C [Example I-1290]	5.00 to 6.00	6.30 to 7.30
COC(=O)N1c2ccc(-c3ccc4c(c3)CCN4S(C)(=O)=O)cc2N(C(=O)Oc2cccnc2)C[C@@H]1C [Example I-1291]	5.00 to 6.00	< 6.30
COC(=O)N1c2ccc(-c3ccc(N(C)S(C)(=O)=O)cc3)cc2N(C(=O)Oc2cccnc2)C[C@@H]1C [Example I-1293]	5.00 to 6.00	< 6.30
COC(=O)N1c2ccc(-c3cnn(C4CNC4)c3)cc2N(C(=O)Oc2cccnc2)C[C@@H]1C [Example I-1295]	5.00 to 6.00	6.30 to 7.30
COC(=O)N1c2ccc(-c3cnn(C4CCNCC4)c3)cc2N(C(=O)Oc2cccnc2)C[C@@H]1C [Example I-1296]	5.00 to 6.00	6.30 to 7.30
COC(=O)N1c2ccc(-c3cnn(C(C)(C)CO)c3)cc2N(C(=O)Oc2ccccn2)C[C@@H]1C [Example I-1313]	5.00 to 6.00	6.30 to 7.30
CC(=O)N1c2ccc(-c3ccc(S(C)(=O)=O)cc3)cc2N(C(=O)Oc2ccccn2)C[C@@H]1C [Example I-1314]	5.00 to 6.00	6.30 to 7.30
COC(=O)N1c2ccc(-c3ccc(S(C)(=O)=O)cc3)cc2N(C(=O)Oc2ccccn2)C[C@@H]1C [Example I-1315]	5.00 to 6.00	6.30 to 7.30
COC(=O)N1c2ccc(-c3ccc(NS(C)(=O)=O)cc3)cc2N(C(=O)Oc2ccccn2)C[C@@H]1C [Example I-1317]	5.00 to 6.00	6.30 to 7.30
CC(=O)N1c2ccc(-c3cnn(CCS(C)(=O)=O)c3)cc2N(C(=O)Oc2ccccn2)C[C@@H]1C [Example I-1318]	5.00 to 6.00	6.30 to 7.30

Now from value to molecule:

pIC50 [1]	pIC50 [2]	SMILES
5.00 to 6.00	6.30 to 7.30	CC(=O)N1c2ccc(NCc3ccccc3)cc2N(C(=O)c2ccco2)C[C@@H]1C [Example I-989]
5.00 to 6.00	6.30 to 7.30	CC(=O)N1c2ccc(N(C)Cc3ccccc3)cc2N(C(=O)c2ccco2)C[C@@H]1C [Example I-990]
5.00 to 6.00	6.30 to 7.30	CC(=O)N1c2ccc(Nc3ccccc3)cc2N(C(=O)c2ccco2)C[C@@H]1C [Example I-991]
5.00 to 6.00	< 6.30	CC(=O)N1c2ccc(N(C)c3ccccc3)cc2N(C(=O)c2ccco2)C[C@@H]1C [Example I-992]
5.00 to 6.00	6.30 to 7.30	CC(=O)N1c2ccc(N3CCCC3)cc2N(C(=O)c2ccco2)C[C@@H]1C [Example I-993]
5.00 to 6.00	< 6.30	C[C@H]1CN(C(=O)OC2COC2)c2cc(-c3cnn(C4CC4)c3)ccc2N1C(=O)C1CC1 [Example I-998]
5.00 to 6.00	6.30 to 7.30	COC(=O)N1c2ccc(-c3cnn(C4CC4)c3)cc2N(C(=O)OC2COC2)C[C@@H]1C [Example I-999]
5.00 to 6.00	6.30 to 7.30	CC(=O)N1c2ccc(-c3cnn(CCO)c3)cc2N(C(=O)Oc2ccc(F)cc2F)C[C@@H]1C [Example I-1009]
5.00 to 6.00	6.30 to 7.30	CC(=O)N1c2ccc(-c3ccc(S(C)(=O)=O)cc3)cc2N(C(=O)Oc2ccc(F)cc2F)C[C@@H]1C [Example I-1010]
5.00 to 6.00	< 6.30	CC(=O)N1c2ccc(-c3cnn(CCS(C)(=O)=O)c3)cc2N(C(=O)Oc2ccc(F)cc2)C[C@@H]1C [Example I-1017]
5.00 to 6.00	6.30 to 7.30	COC(=O)N1c2ccc(-c3cnn(CCO)c3)cc2N(C(=O)Oc2ccc(F)cc2)C[C@@H]1C [Example I-1022]
5.00 to 6.00	6.30 to 7.30	CC(=O)N1c2ccc(-c3cnn(C4CC4)c3)cc2N(C(=O)Oc2ccc(Cl)cc2Cl)C[C@@H]1C [Example I-1193]
5.00 to 6.00	6.30 to 7.30	CC(=O)N1c2ccc(-c3cnn(C4CC4)c3)cc2N(C(=O)Oc2c(Cl)cc(Cl)c3cccnc23)C[C@@H]1C [Example I-1197]
5.00 to 6.00	6.30 to 7.30	CC(=O)N1c2ccc(-c3cnn(C4CC4)c3)cc2N(C(=O)Oc2cc(F)ccc2C)C[C@@H]1C [Example I-1200]
5.00 to 6.00	6.30 to 7.30	CC(=O)N1c2ccc(-c3cnn(C4CC4)c3)cc2N(C(=O)Oc2cnc3ccccc3c2)C[C@@H]1C [Example I-1203]
5.00 to 6.00	6.30 to 7.30	COc1ncc(F)cc1OC(=O)N1C[C@H](C)N(C(C)=O)c2ccc(-c3cnn(C4CC4)c3)cc21 [Example I-1208]
5.00 to 6.00	6.30 to 7.30	COc1cc(OC(=O)N2C[C@H](C)N(C(C)=O)c3ccc(-c4cnn(C5CC5)c4)cc32)c(Cl)cn1 [Example I-1209]
